Tested on: Bacteria
Assay: Bacterial minimum inhibitory concentration
Assay type: functional

Cc1c(F)c(N2CCNC(C)C2)cc2c1c(=O)c(C(=O)O)cn2C1CC1 (stereo unspecified) [GREPAFLOXACIN]
MIC: < 2.4 µM
